≈ marks a conversion by molar mass, not a printed value. Where two headings read alike, the source gives them in different places.
Columns and labels:
E. faecium 19434 = assay: MIC, standard panel of Gram-positive and Gram-negative bacteria (CLSI); type: cell-based, Enterococcus faecium; details: Enterococcus faecium, 19434; CAMHB; read-out: MIC E. faecium 19434
E. coli 25922 = assay: as above; type: cell-based, Escherichia coli; details: Escherichia coli, 25922; CAMHB; read-out: MIC E. coli 25922
[1] = tested on: S. aureus BAA-1556 (USA300-Type MRSA, FQ-R); assay: MIC, selected panel of Gram-positive and Gram-negative strains (Example 5); type: cell-based, Staphylococcus aureus; details: Staphylococcus aureus; read-out: MIC S. aureus BAA-1556 (USA300-Type MRSA, FQ-R)
A. Baumanii OXA-51 = assay: MIC, panel of quinolone-resistant strains (CLSI); type: cell-based; details: Acinetobacter baumannii; CIP R, ESBL
A. baumannii A329 = assay: MIC without and with sub-inhibitory polymyxin B (Example 4); type: cell-based, Acinetobacter baumannii; details: Acinetobacter baumannii, A329, A. baumannii A329, without polymyxin B, read-out: MIC without PB
E. coli IMP = assay: microbe, parasite or virus in culture; details: Escherichia coli, read-out: MIC E. coli IMP
S. pneumoniae 1027 = assay: MIC, panel of quinolone-resistant strains (CLSI); type: cell-based; details: Streptococcus pneumoniae, LEV R
A. baumannii J2 [2] = assay: Preliminary MBC without and with sub-inhibitory polymyxin B (Example 4); type: cell-based, Acinetobacter baumannii; details: Acinetobacter baumannii, J2, A. baumannii J2, without polymyxin B, preliminary MBC, read-out: MBC without PB
S. aureus 101 = assay: MIC, standard panel of Gram-positive and Gram-negative bacteria (CLSI); type: cell-based, Staphylococcus aureus; details: Staphylococcus aureus, 101; CAMHB; read-out: MIC S. aureus 101
E. coli ATCC 25922 = assay: MIC, selected panel of Gram-positive and Gram-negative strains (Example 5); type: cell-based, Escherichia coli; details: Escherichia coli, ATCC25922; read-out: MIC E. coli ATCC 25922
[3] = tested on: 11 strains of A. baumannii and one strain of Acinetobacter sp.; assay: Preliminary MBC without and with sub-inhibitory polymyxin B, whole panel (Example 4; also strains not listed separately); type: cell-based; details: Acinetobacter baumannii, read-out: MBC without PB
P. aeruginosa ATCC 27853 = assay: MIC, selected panel of Gram-positive and Gram-negative strains (Example 5); type: cell-based; details: Pseudomonas aeruginosa, ATCC27853; read-out: MIC P. aeruginosa ATCC 27853
B. thailandensis E264 = assay: microbe, parasite or virus in culture; type: cell-based, Burkholderia thailandensis; details: Burkholderia thailandensis, E264, read-out: MIC B. thailandensis E264
S. aureus SMITH = assay: MIC, panel of quinolone-resistant strains (CLSI); type: cell-based; details: Staphylococcus aureus; CIP R
A. baumannii ATCC 19606 [4] = assay: Preliminary MBC without and with sub-inhibitory polymyxin B (Example 4); type: cell-based, Acinetobacter baumannii; details: Acinetobacter baumannii, ATCC19606, A. baumannii ATCC 19606, without polymyxin B, preliminary MBC, read-out: MBC without PB
A. baumannii J2 [5] = assay: MIC determination for Acinetobacter strains (Example 3); type: cell-based; details: LEV R, CIP R
A. baumannii ATCC 19606 [6] = assay: as above; type: cell-based; details: ATCC19606, reference strain
A. baumannii A387 [7] = assay: Preliminary MBC without and with sub-inhibitory polymyxin B (Example 4); type: cell-based, Acinetobacter baumannii; details: Acinetobacter baumannii, A387, A. baumannii A387, without polymyxin B, 2nd experiment, read-out: MBC without PB
A. baumannii A390 [8] = assay: MIC determination for Acinetobacter strains (Example 3); type: cell-based; details: LEV R, CIP R, MRP R, IPM I, AMK R, TET I
A. baumannii A390 [9] = assay: MIC without and with sub-inhibitory polymyxin B (Example 4); type: cell-based, Acinetobacter baumannii; details: Acinetobacter baumannii, A390, A. baumannii A390, without polymyxin B, read-out: MIC without PB
A. baumannii A473 = assay: MIC determination for Acinetobacter strains (Example 3); type: cell-based; details: LEV R, CIP R, MRP R, IMP R, AMK R, TET R
B. thailandensis = assay: microbe, parasite or virus in culture; type: cell-based, Burkholderia thailandensis
A. baumannii A489 = assay: MIC determination for Acinetobacter strains (Example 3); type: cell-based; details: LEV R, CIP R, MRP R, IMP R, AMK R, TET R
A. baumannii A387 [10] = assay: MIC without and with sub-inhibitory polymyxin B (Example 4); type: cell-based, Acinetobacter baumannii; details: Acinetobacter baumannii, A387, A. baumannii A387; without polymyxin B; 2nd experiment; visual reading; read-out: MIC without PB
[11] = A. baumannii A14, without polymyxin B, 1st experiment
[12] = A. baumannii A14, without polymyxin B, 2nd experiment

Cc1c(-c2ccc(CN)c(F)c2)ccn2c(=O)c(C(=O)O)cc(C3CC3)c12 [Compound 4, 8-(3-fluoro-4-aminomethyl-phenyl)-1-cyclopropyl-9-methyl-4-oxo-quinolizine-3-carboxylic acid]
MIC (E. faecium 19434): 2 µg/mL (≈ 5.46 µM) | MIC (E. coli 25922): < 0.03 µg/mL | MIC [1]: 0.5 µg/mL (≈ 1.36 µM) | MIC (A. Baumanii OXA-51): 16 µg/mL (≈ 43.7 µM) | MIC (A. baumannii A329; 1st experiment): 16 µg/mL (≈ 43.7 µM) | MIC (A. baumannii A329; 2nd experiment, visual reading): 16 µg/mL (≈ 43.7 µM) | MIC (E. coli IMP): < 0.008 µg/mL | MIC (S. pneumoniae 1027): 1 µg/mL (≈ 2.73 µM) | MBC (A. baumannii J2 [2]; 2nd experiment): 16 µg/mL (≈ 43.7 µM) | MBC (A. baumannii J2 [2]; 1st experiment): 4 µg/mL (≈ 10.9 µM) | MIC (S. aureus 101): 4 µg/mL (≈ 10.9 µM) | MIC (E. coli ATCC 25922): 0.016 µg/mL (≈ 0.0437 µM) | MBC [3, 11]: 16 µg/mL (≈ 43.7 µM) | MBC [3, 12]: > 32 µg/mL | MBC ([3]; NCTC13301, A. baumannii NCTC 13301, without polymyxin B, 2nd experiment): 32 µg/mL (≈ 87.3 µM) | MIC (P. aeruginosa ATCC 27853): 1 µg/mL (≈ 2.73 µM) | MIC (B. thailandensis E264): 1 µg/mL (≈ 2.73 µM)

C[C@H]1COc2c(N3CCN(C)CC3)c(F)cc3c(=O)c(C(=O)O)cn1c23 [Levofloxacin, reference compound]
MIC (S. aureus SMITH): 8 µg/mL (≈ 22.1 µM) | MIC [1]: 8 µg/mL (≈ 22.1 µM) | MBC (A. baumannii ATCC 19606 [4]; 2nd experiment): 1 µg/mL (≈ 2.77 µM) | MBC (A. baumannii ATCC 19606 [4]; 1st experiment): 0.5 µg/mL (≈ 1.38 µM) | MIC (A. baumannii A329; 1st experiment): 32 µg/mL (≈ 88.6 µM) | MIC (A. baumannii J2 [5]): 32 µg/mL (≈ 88.6 µM) | MIC (S. pneumoniae 1027): 16 µg/mL (≈ 44.3 µM) | MBC (A. baumannii J2 [2]; 2nd experiment): 32 µg/mL (≈ 88.6 µM) | MBC (A. baumannii J2 [2]; 1st experiment): 32 µg/mL (≈ 88.6 µM) | MIC (E. coli ATCC 25922): 0.016 µg/mL (≈ 0.0443 µM) | MIC (A. baumannii ATCC 19606 [6]): 1 µg/mL (≈ 2.77 µM) | MBC [3, 11]: 32 µg/mL (≈ 88.6 µM) | MBC [3, 12]: 32 µg/mL (≈ 88.6 µM) | MBC ([3]; NCTC13301, A. baumannii NCTC 13301, without polymyxin B, 1st experiment): 32 µg/mL (≈ 88.6 µM) | MIC (P. aeruginosa ATCC 27853): 1 µg/mL (≈ 2.77 µM) | MIC (B. thailandensis E264): 4 µg/mL (≈ 11.1 µM)

Cc1c(-c2ccc(N)c(F)c2)ccn2c(=O)c(C(=O)O)cc(C3CC3)c12 [Compound 1, 8-(3-fluoro-4-amino-phenyl)-1-cyclopropyl-9-methyl-4-oxo-quinolizine-3-carboxylic acid]
MBC (A. baumannii A387 [7]): 4 µg/mL (≈ 11.4 µM) | MBC (A. baumannii ATCC 19606 [4]; 2nd experiment): 0.25 µg/mL (≈ 0.709 µM) | MBC (A. baumannii ATCC 19606 [4]; 1st experiment): 0.25 µg/mL (≈ 0.709 µM) | MIC (A. baumannii A329; 1st experiment): 16 µg/mL (≈ 45.4 µM) | MIC (A. baumannii A329; 2nd experiment, visual reading): 16 µg/mL (≈ 45.4 µM) | MIC (A. baumannii A390 [8]): 16 µg/mL (≈ 45.4 µM) | MIC (A. baumannii J2 [5]): 8 µg/mL (≈ 22.7 µM) | MIC (A. baumannii A390 [9]; 1st experiment): 16 µg/mL (≈ 45.4 µM) | MIC (A. baumannii A390 [9]; 2nd experiment, visual reading): 16 µg/mL (≈ 45.4 µM) | MIC (A. baumannii A473): 4 µg/mL (≈ 11.4 µM) | MBC (A. baumannii J2 [2]; 2nd experiment): 16 µg/mL (≈ 45.4 µM) | MBC (A. baumannii J2 [2]; 1st experiment): 8 µg/mL (≈ 22.7 µM) | MIC90 (B. thailandensis; Burkholderia thailandensis, read-out: MIC90 B. thailandensis): < 0.048 µg/mL | Dilutions improvement shift on B. thailandensis MIC90 (between pH 7 and pH 5) (B. thailandensis; pH 7 versus pH 5): Yes, 4× | MIC (A. baumannii ATCC 19606 [6]): 0.25 µg/mL (≈ 0.709 µM) | MIC (A. baumannii A489): 4 µg/mL (≈ 11.4 µM) | MIC (A. baumannii A387 [10]): 4 µg/mL (≈ 11.4 µM)

Source: US10155021B2, “Antimicrobial 4-oxoquinolizines” (Emergent Product Development Gaithersburg Inc., priority 2011, dated 2018)
